Patent publication US9714224B2, “Heterocyclic compounds and methods of their use” (Novartis AG, priority 2013, dated 2017)
pIC50: −log10 of the molar value.

Biological target: AT2 receptor (Homo sapiens (Human), UniProt P50052)
Assay: AT2 receptor binding assay ([125I]-CGP42112A displacement, HEK293/AT2 receptor cell membranes)
Conditions: membranes of HEK293 cells transiently transfected with AT2 receptor; radioligand [125I]-CGP42112A; RT, 1.5 hrs
Protocol: Biological Example 1: AT2 Receptor Binding
• 1. Trypsin-EDTA (for preparation of 100 mL) • Trypsin 0.25 g • 2% EDTA 2 mL • PBS 98 mL • Dissolve trypsin in 2% EDTA and PBS completely; sterilize the solution by passing through a […] membrane filter; store at 4° C. • 2. DMEM medium (for preparation of IL) • The powder was dissolved into 950 mL of distilled water with gentle stirring until the solution becomes clear. • Add NaHCO3 1.176 g for DMEM medium. • Adjust pH of medium to 0.2-0.3 below final working pH using 1 M NaOH or 1 M HCl. Add slowly with stirring. • Dilute to 1 liter with ddH2O. • Sterilize the medium immediately by filtration. • Store at 4° C. • 3. TE buffer • 20 mM Tris-HCl, pH 7.4. • 5 mM EDTA • 4. Binding Assay Buffer • 50 mM HEPES, pH 7.4 • 5 mM MgCl2 • 1 mM CaCl2 • 0.2% BSA • 5. […] Cells were ready for transfection after overnight incubation (the confluence reaches around 80%). • 75 μL Lipofectamine™ 2000 diluted in 6.25 mL OptiMEM I Reduced Serum Medium, was mixed gently, and incubated at room temperature for 5 minutes, 50 μg expression plasmid DNA diluted in 6.25 mL OptiMEM I Reduced Serum Medium without serum was mixed gently. • After the 5 minute incubation, the diluted DNA was combined with the diluted Lipofectamine™ 2000 (total volume is 12.5 mL). […]

Sequence of AT2 receptor (P50052 whole entry, species assumed): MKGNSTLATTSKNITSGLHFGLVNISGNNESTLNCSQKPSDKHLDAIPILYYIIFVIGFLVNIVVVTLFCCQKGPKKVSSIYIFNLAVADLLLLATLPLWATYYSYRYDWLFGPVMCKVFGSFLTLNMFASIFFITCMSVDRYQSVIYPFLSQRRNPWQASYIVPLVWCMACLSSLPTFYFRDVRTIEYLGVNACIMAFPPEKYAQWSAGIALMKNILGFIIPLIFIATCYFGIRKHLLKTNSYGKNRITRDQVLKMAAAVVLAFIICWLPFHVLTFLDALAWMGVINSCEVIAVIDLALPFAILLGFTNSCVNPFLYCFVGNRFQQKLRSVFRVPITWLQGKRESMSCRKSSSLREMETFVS

pIC50	Structure (SMILES)
6.37	COc1ccc2c(c1OCc1ccccc1)CC(C(=O)O[C@@H]1O[C@H](C(=O)O)[C@@H](O)[C@H](O)[C@H]1O)N(C(=O)C(c1ccccc1)c1ccccc1)C2 (some centres unmarked) [Compound 33]
5.75	COc1ccc2c(c1O)C[C@@H](C(=O)NS(=O)(=O)N(C)C)N(C(=O)C(c1ccccc1)c1ccccc1)C2 [Compound 41]
